# Experimental data reported in patent US8623830B2, “Compositions containing α-1-antitrypsin and methods for use” (Beth Israel Deaconess Medical Center, Inc., priority 2006, dated 2014).
# Legend:
# [1] = subcutaneous injection of 25 mg twice a week; average; cited from earlier work
# [2] = test system: 1-AZT, a misfolded but functionally active mutant of α1-antitrypsin; settings: model cell culture system; cited from earlier work
# [3] = test system: new onset diabetic NOD mice; experiment: Treatment of new onset diabetic NOD mice, blood glucose monitoring (normoglycemia); format: in vivo, mouse
# Description: Female NOD (NOD/LtJx) mice and NOD.SCID (NOD.CB17-Prkdc^scid/J) were purchased from Jackson Laboratories (Bar Harbor, Me.) at 4 weeks of age and maintained under pathogen-free conditions in a conventional animal facility at Massachusetts General Hospital (Boston, Mass.). All animal studies were approved by our institutional review boards. The blood glucose levels of NOD mice were monitored weekly with the ACCU-CHECK® blood glucose monitor system (Roche, Indianapolis, Ind.). […] For syngeneic islet transplant recipients, blood glucose levels were checked at the time of transplantation, then daily for the first two weeks, and then 2 to 3 times per week afterward.
# ARALAST™ (α1-proteinase inhibitor, human) is a major serum serine-protease inhibitor that inhibits the enzymatic activity of neutrophil elastase, cathespin G, proteinase 3, thrombin, trypsin, and chymotrypsin. ARALAST™ was purchased from Baxter (Westlake Village, Calif.) and was given at a dose of 2 mg i.p. every 3 days, for a total of 5 injections.
# insulin receptor (IR) = experiment: In vivo insulin signaling in skeletal muscle, immunoblotting of IR phosphorylation; set-up: species or system mouse; settings: skeletal muscle of new onset diabetic NOD mice, FIG. 1
# Experimental: (§1) FIG. 1 is a pair of bar graphs representing the results obtained from studies of insulin signaling in skeletal muscle. The upper graph charts insulin receptor (IR) phosphorylation and the lower graph charts insulin receptor substrate-1 (IRS-1) phosphorylation in control, diabetic, and treated animals.
# (§2) In vivo insulin signaling experiments were performed on mice after a 16 hour fast. Mice were injected i.p. with 20 U/kg BW of human insulin (Eli Lilly) or saline. Skeletal muscle (gastronemius) was dissected and frozen in liquid nitrogen for immunoblotting analysis of insulin signaling proteins.
# (§3) Skeletal muscle (gastronemius), obtained in the context of our in vivo insulin signaling studies, was homogenized in a modified radioimmunoprecipitation assay (RIPA) buffer containing 50 mM Tris-HCl, 1 mM EDTA, 1% NP-40, 0.25% sodium deoxycholate, 150 mM NaCl, 1 mM PMSF, 200 μM […], supplemented with 1% protease inhibitor cocktail (Sigma), and 1% tyrosine phosphatase inhibitor cocktail (Sigma). Cell homogenates were incubated on ice for 45 minutes to solubilize all proteins, and insoluble portions were removed by centrifugation at 14,000 g at 4° C. for 15 minutes. Whole cell lysates were separated by SDS-polyacrylamide gel electrophoresis (PAGE). […] The blots were quantified using densitometry (Molecular Dynamics, Sunnvale, Calif.).
# [4] = test system: insulin receptor substrate-1 (IRS-1); experiment: In vivo insulin signaling in skeletal muscle, immunoblotting of IRS-1 phosphorylation; set-up: species or system mouse; settings: skeletal muscle of new onset diabetic NOD mice, FIG. 1
# Experimental: as §1, §2, §3
# [5] = cited from earlier work
compound,measurement,setting,value
Etanercept,Time to peak blood levels,[1],72 h
"O=C(O)CCCc1ccccc1 [PBA, 4-phenylbutyric acid]",Secretion of 1-AZT,[2],marked increase
"Aralast ™: α1-proteinase inhibitor, human; major serum serine-protease inhibitor, purchased from Baxter",Days after treatment (how long the animals have been normoglycemic),[3]; animals still alive at writing,90 to 300 days
same,Tyrosyl-phosphorylation of insulin receptor (IR),insulin receptor (IR),restored
same,Phosphorylation of insulin receptor substrate-1 (IRS-1),[4],restored
"AAT: α1-antitrypsin, plasma serine protease inhibitor (serpin)",Effect of a short course on glycemia,[3],restores normoglycemia
same,Half life in plasma,[5],approximately six
